Test results published in patent US12723063B2, “GIPR-agonist compounds” (Eli Lilly and Company, priority 2019, dated 2026).
*1 amine or outer side, *2 acyl side, *3 side chain or, on linkers, in order; H or OH if unused. Where a SMILES comes first, the peptide text is derived from it. Side-chain parts run from the residue outwards. [ ]: non-standard residue; d: D form. The star is where a group is joined. C20 diacid = O=C(O)CCCCCCCCCCCCCCCCCCC(=O)*; C18 diacid = O=C(O)CCCCCCCCCCCCCCCCC(=O)*; γGlu = O=C(O)[C@H](CCC(=O)[*:2])N[*:1]; αMeF = C[C@](N)(Cc1ccccc1)C(=O)O; 4Pal = N[C@@H](Cc1ccncc1)C(=O)O; AEEA = NCCOCCOCC(=O)O; Aib = CC(C)(N)C(=O)O

Experiments:
[1] = biological target: T1, human glucagon receptor (GcgR) (Homo sapiens, UniProt P47871); experiment: cAMP functional assay (HTRF) in HEK293 cells in presence of 0.1% casein; assay type: cell-based; details: HEK293 cells expressing human GcgR, geometric mean, read-out: hGcgR cAMP Rel EC50 nM (SEM, n)
T1 construct: expressed in transfected cells; host or cells: HEK293
T1 sequence (P47871 26-477): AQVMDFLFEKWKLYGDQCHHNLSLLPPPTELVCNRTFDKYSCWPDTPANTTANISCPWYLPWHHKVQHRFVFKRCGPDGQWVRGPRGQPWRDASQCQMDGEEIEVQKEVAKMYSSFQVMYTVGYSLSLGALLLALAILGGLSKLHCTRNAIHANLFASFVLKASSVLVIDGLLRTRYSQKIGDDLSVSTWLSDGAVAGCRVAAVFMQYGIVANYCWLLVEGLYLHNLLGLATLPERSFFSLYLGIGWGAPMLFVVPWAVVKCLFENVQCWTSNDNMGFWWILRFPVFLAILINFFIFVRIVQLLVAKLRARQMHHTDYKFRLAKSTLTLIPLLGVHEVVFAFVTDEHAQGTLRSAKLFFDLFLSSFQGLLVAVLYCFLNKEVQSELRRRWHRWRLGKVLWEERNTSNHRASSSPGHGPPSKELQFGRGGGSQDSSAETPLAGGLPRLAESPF

[2] = biological target: T2, human glucose-dependent insulinotropic peptide receptor (GIPR) (Homo sapiens, UniProt P48546); experiment: as above; assay type: cell-based; details: HEK293 cells expressing human GIPR, geometric mean, read-out: hGIPR cAMP Rel EC50 nM (SEM, n)
T2 construct: expressed in transfected cells; host or cells: HEK293
T2 sequence (P48546 22-466): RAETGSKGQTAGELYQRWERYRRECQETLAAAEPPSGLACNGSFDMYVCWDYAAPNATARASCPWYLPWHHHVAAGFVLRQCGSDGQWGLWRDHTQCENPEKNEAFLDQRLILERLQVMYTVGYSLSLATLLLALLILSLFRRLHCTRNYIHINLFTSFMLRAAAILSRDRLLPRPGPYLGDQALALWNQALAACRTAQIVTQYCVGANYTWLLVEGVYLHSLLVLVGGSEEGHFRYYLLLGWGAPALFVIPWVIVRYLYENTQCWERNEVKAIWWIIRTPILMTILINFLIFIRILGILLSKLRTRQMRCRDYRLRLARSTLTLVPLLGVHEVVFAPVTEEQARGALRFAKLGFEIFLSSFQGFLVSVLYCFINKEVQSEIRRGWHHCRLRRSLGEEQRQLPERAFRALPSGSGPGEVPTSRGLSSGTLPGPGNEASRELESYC

| SMILES | EC50 [1] [nM] | EC50 [2] [nM] |
| --- | --- | --- |
| CC[C@H](C)[C@H](NC(=O)[C@H](CO)NC(=O)[C@H](Cc1ccc(O)cc1)NC(=O)[C@H](CC(=O)O)NC(=O)[C@H](CO)NC(=O)[C@@H](NC(=O)[C@H](Cc1ccccc1)NC(=O)[C@@H](NC(=O)CNC(=O)[C@H](CCC(=O)O)NC(=O)[C@@H](C)NC(=O)[C@@H](N)Cc1ccc(O)cc1)[C@@H](C)O)[C@@H](C)CC)C(=O)N[C@@H](CC(C)C)C(=O)N[C@@H](CC(C)C)C(=O)N[C@@H](CC(=O)O)C(=O)N[C@@H](CCCCN)C(=O)N[C@@H](CCCCNC(=O)COCCOCCNC(=O)COCCOCCNC(=O)CC[C@H](NC(=O)CCCCCCCCCCCCCCCCC(=O)O)C(=O)O)C(=O)N[C@@H](C)C(=O)N[C@@H](CCC(N)=O)C(=O)NC(C)(C)C(=O)N[C@@H](CCC(=O)O)C(=O)N[C@@H](Cc1ccccc1)C(=O)N[C@H](C(=O)N[C@@H](CC(N)=O)C(=O)N[C@@H](Cc1c[nH]c2ccccc12)C(=O)N[C@@H](CC(C)C)C(=O)N[C@@H](CC(C)C)C(=O)N[C@@H](C)C(=O)N[C@@H](CCC(N)=O)C(=O)NCC(=O)N1CCC[C@H]1C(=O)N[C@@H](CO)C(=O)N[C@@H](CO)C(=O)NCC(=O)N[C@@H](C)C(=O)N1CCC[C@H]1C(=O)N1CCC[C@H]1C(=O)N1CCC[C@H]1C(=O)N[C@@H](CO)C(N)=O)C(C)C [Example 20] (H-Y[dA]EGTFISDYSILLDKK([AEEA-AEEA-γGlu-C18 diacid])AQ[Aib]EFVNWLLAQGPSSGAPPPS-NH2) | > 5000 | 0.00933 |
| CC[C@H](C)[C@H](NC(=O)[C@H](CO)NC(=O)[C@H](Cc1ccc(O)cc1)NC(=O)[C@H](CC(=O)O)NC(=O)[C@H](CO)NC(=O)[C@@H](NC(=O)[C@H](Cc1ccccc1)NC(=O)[C@@H](NC(=O)CNC(=O)[C@H](CCC(=O)O)NC(=O)C(C)(C)NC(=O)[C@@H](N)Cc1ccc(O)cc1)[C@@H](C)O)[C@@H](C)CC)C(=O)N[C@@H](C)C(=O)N[C@@H](CC(C)C)C(=O)N[C@@H](CC(=O)O)C(=O)N[C@@H](CCCCN)C(=O)N[C@@H](CCCCNC(=O)COCCOCCNC(=O)COCCOCCNC(=O)CC[C@H](NC(=O)CCCCCCCCCCCCCCCCC(=O)O)C(=O)O)C(=O)N[C@@H](Cc1c[nH]cn1)C(=O)N[C@@H](CCC(N)=O)C(=O)NC(C)(C)C(=O)N[C@@H](CC(=O)O)C(=O)N[C@@H](Cc1ccccc1)C(=O)N[C@H](C(=O)N[C@@H](CCC(=O)O)C(=O)N[C@@H](Cc1ccncc1)C(=O)N[C@@H](CC(C)C)C(=O)N[C@@H](CC(C)C)C(=O)N[C@@H](C)C(=O)NCC(=O)NCC(=O)N1CCC[C@H]1C(=O)N[C@@H](CO)C(=O)N[C@@H](CO)C(=O)NCC(=O)N[C@@H](C)C(=O)N1CCC[C@H]1C(=O)N1CCC[C@H]1C(=O)N1CCC[C@H]1C(=O)N[C@@H](CO)C(N)=O)C(C)C [Example 21] (H-Y[Aib]EGTFISDYSIALDKK([AEEA-AEEA-γGlu-C18 diacid])HQ[Aib]DFVE[4Pal]LLAGGPSSGAPPPS-NH2) | > 5000 | 0.291 |
| CC[C@H](C)[C@H](NC(=O)[C@H](CO)NC(=O)[C@H](Cc1ccc(O)cc1)NC(=O)[C@H](CC(=O)O)NC(=O)[C@H](CO)NC(=O)[C@@H](NC(=O)[C@H](Cc1ccccc1)NC(=O)[C@@H](NC(=O)CNC(=O)[C@H](CCC(=O)O)NC(=O)C(C)(C)NC(=O)[C@@H](N)Cc1ccc(O)cc1)[C@@H](C)O)[C@@H](C)CC)C(=O)N[C@@H](CC(C)C)C(=O)N[C@@H](CC(C)C)C(=O)N[C@@H](CC(=O)O)C(=O)N[C@@H](CCCCN)C(=O)N[C@@H](CCCCNC(=O)COCCOCCNC(=O)COCCOCCNC(=O)CC[C@H](NC(=O)CCCCCCCCCCCCCCCCC(=O)O)C(=O)O)C(=O)N[C@@H](Cc1c[nH]cn1)C(=O)N[C@@H](CCC(N)=O)C(=O)NC(C)(C)C(=O)N[C@@H](CC(=O)O)C(=O)N[C@@H](Cc1ccccc1)C(=O)N[C@H](C(=O)N[C@@H](CCC(=O)O)C(=O)N[C@@H](Cc1ccncc1)C(=O)N[C@@H](CC(C)C)C(=O)N[C@@H](CC(C)C)C(=O)N[C@@H](C)C(=O)NCC(=O)NCC(=O)N1CCC[C@H]1C(=O)N[C@@H](CO)C(=O)N[C@@H](CO)C(=O)NCC(=O)N[C@@H](C)C(=O)N1CCC[C@H]1C(=O)N1CCC[C@H]1C(=O)N1CCC[C@H]1C(=O)N[C@@H](CO)C(N)=O)C(C)C [Example 22] | 1250 | 0.0345 |
| CC[C@H](C)[C@H](NC(=O)[C@H](CO)NC(=O)[C@H](Cc1ccc(O)cc1)NC(=O)[C@H](CC(=O)O)NC(=O)[C@H](CO)NC(=O)[C@@H](NC(=O)[C@](C)(Cc1ccccc1)NC(=O)[C@@H](NC(=O)CNC(=O)[C@H](CCC(=O)O)NC(=O)C(C)(C)NC(=O)[C@@H](N)Cc1ccc(O)cc1)[C@@H](C)O)[C@@H](C)CC)C(=O)N[C@@H](C)C(=O)N[C@@H](CC(C)C)C(=O)N[C@@H](CC(=O)O)C(=O)N[C@@H](CCCCN)C(=O)N[C@@H](CCCCNC(=O)COCCOCCNC(=O)COCCOCCNC(=O)CC[C@H](NC(=O)CCCCCCCCCCCCCCCCC(=O)O)C(=O)O)C(=O)N[C@@H](Cc1c[nH]cn1)C(=O)N[C@@H](CCC(N)=O)C(=O)NC(C)(C)C(=O)N[C@@H](CC(=O)O)C(=O)N[C@@H](Cc1ccccc1)C(=O)N[C@H](C(=O)N[C@@H](CCC(=O)O)C(=O)N[C@@H](Cc1ccncc1)C(=O)N[C@@H](CC(C)C)C(=O)N[C@@H](CC(C)C)C(=O)N[C@@H](C)C(=O)NCC(=O)NCC(=O)N1CCC[C@H]1C(=O)N[C@@H](CO)C(=O)N[C@@H](CO)C(=O)NCC(=O)N[C@@H](C)C(=O)N1CCC[C@H]1C(=O)N1CCC[C@H]1C(=O)N1CCC[C@H]1C(=O)N[C@@H](CO)C(N)=O)C(C)C [Example 23] (H-Y[Aib]EGT[αMeF]ISDYSIALDKK([AEEA-AEEA-γGlu-C18 diacid])HQ[Aib]DFVE[4Pal]LLAGGPSSGAPPPS-NH2) | > 5000 | 0.0192 |
| CC[C@H](C)[C@H](NC(=O)[C@H](Cc1ccccc1)NC(=O)[C@@H](NC(=O)CNC(=O)[C@H](CCC(=O)O)NC(=O)C(C)(C)NC(=O)[C@@H](N)Cc1ccc(O)cc1)[C@@H](C)O)C(=O)N[C@@H](CO)C(=O)N[C@@H](CC(=O)O)C(=O)N[C@@H](Cc1ccc(O)cc1)C(=O)N[C@@H](CO)C(=O)N[C@H](C(=O)NC(C)(C)C(=O)N[C@@H](CC(C)C)C(=O)N[C@@H](CC(=O)O)C(=O)N[C@@H](CCCCN)C(=O)N[C@@H](CCCCNC(=O)COCCOCCNC(=O)COCCOCCNC(=O)CC[C@H](NC(=O)CCCCCCCCCCCCCCCCC(=O)O)C(=O)O)C(=O)N[C@@H](Cc1c[nH]cn1)C(=O)N[C@@H](CCC(N)=O)C(=O)NC(C)(C)C(=O)N[C@@H](CC(=O)O)C(=O)N[C@@H](Cc1ccccc1)C(=O)N[C@H](C(=O)N[C@@H](CCC(=O)O)C(=O)N[C@@H](Cc1ccncc1)C(=O)N[C@@H](CC(C)C)C(=O)N[C@@H](CC(C)C)C(=O)N[C@@H](C)C(=O)NCC(=O)NCC(=O)N1CCC[C@H]1C(=O)N[C@@H](CO)C(=O)N[C@@H](CO)C(=O)NCC(=O)N[C@@H](C)C(=O)N1CCC[C@H]1C(=O)N1CCC[C@H]1C(=O)N1CCC[C@H]1C(=O)N[C@@H](CO)C(N)=O)C(C)C)[C@@H](C)CC [Example 24] | > 5000 | 0.0699 |
| CC[C@H](C)[C@H](NC(=O)[C@H](CO)NC(=O)[C@H](Cc1ccc(O)cc1)NC(=O)[C@H](CC(=O)O)NC(=O)[C@H](CO)NC(=O)[C@@H](NC(=O)[C@](C)(Cc1ccccc1)NC(=O)[C@@H](NC(=O)CNC(=O)[C@H](CCC(=O)O)NC(=O)C(C)(C)NC(=O)[C@@H](N)Cc1ccc(O)cc1)[C@@H](C)O)[C@@H](C)CC)C(=O)N[C@@H](C)C(=O)N[C@@H](CC(C)C)C(=O)N[C@@H](CC(=O)O)C(=O)N[C@@H](CCCCN)C(=O)N[C@@H](CCCCNC(=O)COCCOCCNC(=O)COCCOCCNC(=O)CC[C@H](NC(=O)CCCCCCCCCCCCCCCCCCC(=O)O)C(=O)O)C(=O)N[C@@H](Cc1c[nH]cn1)C(=O)N[C@@H](CCC(N)=O)C(=O)NC(C)(C)C(=O)N[C@@H](CCC(=O)O)C(=O)N[C@@H](Cc1ccccc1)C(=O)N[C@H](C(=O)N[C@@H](CC(N)=O)C(=O)N[C@@H](Cc1c[nH]c2ccccc12)C(=O)N[C@@H](CC(C)C)C(=O)N[C@@H](CC(C)C)C(=O)N[C@@H](C)C(=O)NCC(=O)NCC(=O)N1CCC[C@H]1C(=O)N[C@@H](CO)C(=O)N[C@@H](CO)C(=O)NCC(=O)N[C@@H](C)C(=O)N1CCC[C@H]1C(=O)N1CCC[C@H]1C(=O)N1CCC[C@H]1C(=O)N[C@@H](CO)C(N)=O)C(C)C [Example 25] (H-Y[Aib]EGT[αMeF]ISDYSIALDKK([AEEA-AEEA-γGlu-C20 diacid])HQ[Aib]EFVNWLLAGGPSSGAPPPS-NH2) | > 5000 | 0.0155 |
